In patent US20100029710A1, “COMPOUNDS HAVING BOTH ANGIOTENSIN II RECEPTOR ANTAGONISM AND PPARy ACTIVATING ACTIVITIES” (Pfizer Products Inc., priority 2006, published 2010):

Assays:
[1] = target: T1, Human recombinant AT1 receptor (Homo sapiens, UniProt P30556); experiment: AT1 receptor radioligand binding (flashplate); settings: 125I Sar1,Ile8-Angiotensin II radioligand
T1 construct: purchased
T1 sequence (P30556 1-359): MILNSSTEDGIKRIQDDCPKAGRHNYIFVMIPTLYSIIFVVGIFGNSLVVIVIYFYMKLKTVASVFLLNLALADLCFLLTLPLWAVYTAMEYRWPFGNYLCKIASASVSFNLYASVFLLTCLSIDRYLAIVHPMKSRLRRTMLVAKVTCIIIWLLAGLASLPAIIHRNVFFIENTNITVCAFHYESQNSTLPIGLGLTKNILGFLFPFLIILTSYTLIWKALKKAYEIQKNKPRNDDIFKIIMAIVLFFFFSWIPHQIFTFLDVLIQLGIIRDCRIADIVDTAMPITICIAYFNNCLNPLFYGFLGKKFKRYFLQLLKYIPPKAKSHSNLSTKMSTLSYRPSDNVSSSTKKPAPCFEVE
Procedure: Angiotensin II receptor antagonist activity may be determined using commercially available flashplates coated with the AT1 or AT2 receptor which provide a rapid and high throughput means to evaluate compounds compared to traditional filtration based assays (Regina M. Van Der Hee et al., Journal of Biomolecular Screening 10(2); 2005; 118-126).
AT1 receptor affinity was determined in a radioligand binding format using commercially available flashplate technology. Human recombinant AT1 receptor were coated on the wells of a 96 well flashplate and test compounds were diluted and added to wells at a final concentration range of 50 μM to 1 μM. Total binding was determined in the absence of compound and non-specific binding in the presence of 10 μM cold Angiotensin II. ^125I labeled Sar^1, Ile^8-Angiotensin II was added to all wells at Kd concentration and left for 2 hours at room temperature to equilibrate. Plates were read on a TopCount (Perkin Elmer) and concentration-response curves constructed using commercial curve fitting software. The Ki was determined via interpolation and the use of the Cheng-Prussof equation.

[2] = target: T2, human PPARγ LBD bound to Gal4 DBD (Homo sapiens, UniProt P37231); experiment: PPARγ transfection luciferase reporter assay in HepG2 cells; format: cell-based; settings: for Emax: HepG2, 24 h, compared to full agonist response (standard TZD full agonist), read-out: PPARγ % activation; for EC50: HepG2, 24 hours exposure
T2 construct: expressed in transfected cells; host or cells: HepG2
T2 sequence (P37231 238-503 limits assumed): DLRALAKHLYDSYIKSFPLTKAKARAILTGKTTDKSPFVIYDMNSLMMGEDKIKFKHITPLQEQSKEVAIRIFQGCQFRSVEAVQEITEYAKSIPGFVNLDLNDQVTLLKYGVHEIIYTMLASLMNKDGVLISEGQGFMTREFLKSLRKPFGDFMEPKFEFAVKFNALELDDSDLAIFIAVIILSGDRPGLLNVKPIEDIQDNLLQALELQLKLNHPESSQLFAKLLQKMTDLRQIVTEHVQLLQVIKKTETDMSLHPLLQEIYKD
Procedure: PPARγ agonist activity may be determined by a cell line transiently transfected with PPARγ bound to a DNA binding domain that controls luciferase expression. The degree of receptor agonism is measured by the amount of luciferase activity after compound treatment. The ratio of treated cells over vehicle control cells provides a measure of fold activation and allows an EC50 (shown in tables I and II as […] EC50) and % activation to be calculated
A human hepatocellular carcinoma cell line (HepG2) was subcultured into dishes and transiently transfected with DNA to allow expression of human PPARγ LBD bound to Gal4 DBD. Luciferase reporter gene and β-galactosidase control genes were co-transfected to enable activity to be measured. After 24 hours, cells were exposed to compounds in the concentration range of 0.1 nM-100 μM and left for a further 24 hours. Luciferase activity is determined by luminometry and PPARγ activation is expressed as a ratio of luciferase activity to β-galactosidase activity to account for transfection efficiency. Potency is described by an EC50 defined as the concentration of compound producing receptor activation equivalent to 50% of the maximum for that compound (shown in Table I as transfection EC50). The maximum fold activation is a measure of efficacy and is expressed as a percentage of a reference full agonist run in the same assay. Efficacy is described by % activation of receptor relative to a standard thiazolidinedione (TZD) full agonist.

Compound | IC50 [1] [nM] | Emax [2] [%] | EC50 [2] [nM]
CCc1nc2c(C)cc(CC[C@@](C)(O)C(C)C)nc2n1[C@H]1CCc2cc(-c3ccccc3-c3nnn[nH]3)ccc21 [Example 55, (R)-1-(3-((1S)-5-(2-(1H-tetrazol-5-yl)phenyl)-2,3-dihydro-1H-inden-1-yl)-2-ethyl-7-methyl-3H-imidazo[4,5-b]pyridin-5-yl)-3,4-dimethylpentan-3-ol] | 2.4 | 38 | 150
CCc1nc2c(C)cc([C@@H](OC)C(C)C)nc2n1[C@H]1CCc2cc(-c3ccccc3-c3nnn[nH]3)ccc21 [Example 12, 3-((1S)-5-(2-(1H-tetrazol-5-yl)phenyl)-2,3-dihydro-1H-inden-1-yl)-2-ethyl-5-((S)-1-methoxy-2-methylpropyl)-7-methyl-3H-imidazo[4,5-b]pyridine] | 0.7 | 17 | 460
CCCc1nc2c(C)cc(CCC(C)O)nc2n1[C@H]1CCc2cc(-c3ccccc3-c3nnn[nH]3)ccc21 (stereo partly drawn) [Example 49, 4-(3-((1S)-5-(2-(1H-tetrazol-5-yl)phenyl)-2,3-dihydro-1H-inden-1-yl)-7-methyl-2-propyl-3H-imidazo[4,5-b]pyridin-5-yl)butan-2-ol] | 1.6 | 18 | 815
CCc1nc2c(C)cc(COC)nc2n1[C@H]1CCc2cc(-c3ccccc3-c3nnn[nH]3)ccc21 [Example 3, 3-((1S)-5-(2-(1H-tetrazol-5-yl)phenyl)-2,3-dihydro-1H-inden-1-yl)-2-ethyl-5-(methoxymethyl)-7-methyl-3H-imidazo[4,5-b]pyridine] | 1.6 | 32 | 665
CCc1nc2c(C)cc(COC(C)C)nc2n1[C@H]1CCc2cc(-c3ccccc3-c3nnn[nH]3)ccc21 [Example 4, 3-((1S)-5-(2-(1H-tetrazol-5-yl)phenyl)-2,3-dihydro-1H-inden-1-yl)-2-ethyl-5-(isopropoxymethyl)-7-methyl-3H-imidazo[4,5-b]pyridine] | 2.2 | 32 | 295
CCc1nc2c(C)cc(CCCOC)nc2n1[C@H]1CCc2cc(-c3ccccc3-c3nnn[nH]3)ccc21 [Example 48, 3-((1S)-5-(2-(1H-tetrazol-5-yl)phenyl)-2,3-dihydro-1H-inden-1-yl)-2-ethyl-5-(3-methoxypropyl)-7-methyl-3H-imidazo[4,5-b]pyridine] | 1.1 | 21 | 190
CCc1nc2c(C)cc(Cn3cccn3)nc2n1[C@H]1CCc2cc(-c3ccccc3-c3nnn[nH]3)ccc21 [Example 6, 5-((1H-pyrazol-1-yl)methyl)-3-((1S)-5-(2-(1H-tetrazol-5-yl)phenyl)-2,3-dihydro-1H-inden-1-yl)-2-ethyl-7-methyl-3H-imidazo[4,5-b]pyridine] | 10 | 46 | 275
CCc1nc2c(C)cc(CCC3CCCCC3)nc2n1[C@H]1CCc2cc(-c3ccccc3-c3nnn[nH]3)ccc21 [Example 58, 3-((1S)-5-(2-(1H-tetrazol-5-yl)phenyl)-2,3-dihydro-1H-inden-1-yl)-5-(2-cyclohexylethyl)-2-ethyl-7-methyl-3H-imidazo[4,5-b]pyridine] | 3.8 | 31 | 200
CCc1nc2c(C)cc(Cn3nc(C)cc3C)nc2n1[C@H]1CCc2cc(-c3ccccc3-c3nnn[nH]3)ccc21 [Example 67, 3-((1S)-5-(2-(1H-tetrazol-5-yl)phenyl)-2,3-dihydro-1H-inden-1-yl)-5-((3,5-dimethyl-1H-pyrazol-1-yl)methyl)-2-ethyl-7-methyl-3H-imidazo[4,5-b]pyridine] | 5.1 | 23 | 110
CCc1nc2c(C)cc(CCc3cccnc3)nc2n1[C@H]1CCc2cc(-c3ccccc3-c3nnn[nH]3)ccc21 [Example 24, 3-((1S)-5-(2-(1H-tetrazol-5-yl)phenyl)-2,3-dihydro-1H-inden-1-yl)-2-ethyl-7-methyl-5-(2-(pyridin-3-yl)ethyl)-3H-imidazo[4,5-b]pyridine] | 2.1 | 28 | 425
